{
  "source": "patent US20200306185A1",
  "about": "“ANTIBACTERIAL COLLOID AND METHOD FOR MANUFACTURING THE SAME” (Kaohsiung Medical University, priority 2019, published 2020)",
  "key": {"[1]": {"test_system": "K. pneumoniae BAA-1705", "assay": "Synergistic bacteriostatic test (checkerboard test)", "assay_type": "cell-based, Klebsiella pneumoniae", "experimental": "(§1) The synergistic bacteriostatic test is carried out by using the silver-containing antibacterial colloid (green mediated AgNP inhibitor) manufactured in the present embodiment and a bioactivator (using Gentamicin as an example). The fractional inhibitory concentration (FIC) index is used as a reference index for synergy. Synergy is the phenomenon in which two or more substances are mixed with each other, and the overall effect is greater than the advantage of each substance alone or less than the disadvantage of each substance alone. […] In the two-fold serial dilutions, the concentration of Gentamicin used for K. pneumoniae 700623 ranging from 1.25 μg·mL^−1 to 40 μg·mL^−1, and the concentration of Gentamicin used for K. pneumoniae BAA-1705 ranged from 5 μg·mL^−1 to 160 μg·mL^−1 The green mediated AgNP inhibitor extract extracted with TSB medium is used, and the above procedure is repeated to dilute the concentration of the green mediated AgNP inhibitor extract to 10 mg·mL^−1 50 μL of green mediated AgNP inhibitor is added longitudinally to the 96-well microplate in a two-fold serial dilution using MHB, followed by two-fold serial dilutions of six times at concentrations ranging from 0.31 mg·mL^−1 to 10 mg·mL^−1 Using 0.5 Mcfarland turbidity as the quantitative standard for bacterial solution (0.5 Mcfarland=10^8 CFU/mL). […]"}, "[2]": {"test_system": "K. pneumoniae 700623", "assay": "Synergistic bacteriostatic test (checkerboard test)", "assay_type": "cell-based, Klebsiella pneumoniae", "experimental": "as §1"}, "[3]": {"conditions": "in combination with green mediated AgNP inhibitor"}},
  "data": [
    {"substance": "Gentamicin", "values": [
      {"measurement": "concentration of Gentamicin when used in combination (G-MIC-com)", "setting": "[1]; [3]", "value": 10, "unit": "µg/mL"},
      {"measurement": "MIC of Gentamicin when used alone (MICG)", "setting": "[1]; used alone", "value": 40, "unit": "µg/mL"},
      {"measurement": "concentration of Gentamicin when used in combination (G-MIC-com)", "setting": "[2]; [3]", "value": 5, "unit": "µg/mL"},
      {"measurement": "MIC of Gentamicin when used alone (MICG)", "setting": "[2]; used alone", "value": 40, "unit": "µg/mL"}
    ]}
  ]
}
